Experimental data: ChEMBL document CHEMBL1909046, “DrugMatrix in vitro pharmacology data”

Key:
[1] = target: Tyrosine-protein kinase Fyn (Homo sapiens, UniProt P06241); experiment: biochemical; assay type: cell-based, Insect cells; settings: insect cells;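 further: enzymatic inhibition of Fyn kinase activity measured with Poly(Glu:Tyr) as the phosphorylation substrate; in other assays of this panel Not Active means under 50% inhibition at 10 µM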
Histamine H2 receptor = Histamine H2 receptor (Homo sapiens, UniProt P25021); assay type: cell membranes, CHO-K1, Membrane; further: in other assays of this panel Not Active means under 50% inhibition at 10 µM
Histamine H2 receptor, sequence (P25021 whole entry): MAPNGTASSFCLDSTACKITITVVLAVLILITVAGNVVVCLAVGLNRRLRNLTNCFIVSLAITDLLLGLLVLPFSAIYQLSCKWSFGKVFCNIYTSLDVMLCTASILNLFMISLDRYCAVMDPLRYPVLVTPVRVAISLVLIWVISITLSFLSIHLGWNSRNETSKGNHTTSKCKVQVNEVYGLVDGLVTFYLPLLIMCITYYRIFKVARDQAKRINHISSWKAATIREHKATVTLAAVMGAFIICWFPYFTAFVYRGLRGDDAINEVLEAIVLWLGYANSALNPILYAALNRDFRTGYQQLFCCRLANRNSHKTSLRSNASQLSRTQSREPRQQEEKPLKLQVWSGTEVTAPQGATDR

Cytochrome P450 1A2 = target: T1, Cytochrome P450 1A2 (Homo sapiens, UniProt P05177); settings: bti-tn-5b1-4; further: in other assays of this panel Not Active means under 50% inhibition at 10 µM
T1 sequence (P05177 whole entry): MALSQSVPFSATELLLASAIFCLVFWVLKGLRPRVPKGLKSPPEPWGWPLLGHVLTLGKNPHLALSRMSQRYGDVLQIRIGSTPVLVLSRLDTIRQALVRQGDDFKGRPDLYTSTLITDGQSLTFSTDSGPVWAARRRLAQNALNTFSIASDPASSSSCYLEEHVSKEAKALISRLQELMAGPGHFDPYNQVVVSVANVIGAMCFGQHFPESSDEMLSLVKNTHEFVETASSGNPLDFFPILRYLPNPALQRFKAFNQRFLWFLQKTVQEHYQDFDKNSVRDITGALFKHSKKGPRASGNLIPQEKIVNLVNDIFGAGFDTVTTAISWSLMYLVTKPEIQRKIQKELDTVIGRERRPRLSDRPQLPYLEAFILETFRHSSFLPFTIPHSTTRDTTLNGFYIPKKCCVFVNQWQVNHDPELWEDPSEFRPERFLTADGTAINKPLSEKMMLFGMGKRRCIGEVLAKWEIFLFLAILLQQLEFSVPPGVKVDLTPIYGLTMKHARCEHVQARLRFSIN

[2] = target: T2, Vasoactive intestinal polypeptide receptor 1 (Homo sapiens, UniProt P32241); assay type: cell membranes, Membrane; settings: ht-29; further: in other assays of this panel Not Active means under 50% inhibition at 10 µM
T2 sequence (P32241 whole entry): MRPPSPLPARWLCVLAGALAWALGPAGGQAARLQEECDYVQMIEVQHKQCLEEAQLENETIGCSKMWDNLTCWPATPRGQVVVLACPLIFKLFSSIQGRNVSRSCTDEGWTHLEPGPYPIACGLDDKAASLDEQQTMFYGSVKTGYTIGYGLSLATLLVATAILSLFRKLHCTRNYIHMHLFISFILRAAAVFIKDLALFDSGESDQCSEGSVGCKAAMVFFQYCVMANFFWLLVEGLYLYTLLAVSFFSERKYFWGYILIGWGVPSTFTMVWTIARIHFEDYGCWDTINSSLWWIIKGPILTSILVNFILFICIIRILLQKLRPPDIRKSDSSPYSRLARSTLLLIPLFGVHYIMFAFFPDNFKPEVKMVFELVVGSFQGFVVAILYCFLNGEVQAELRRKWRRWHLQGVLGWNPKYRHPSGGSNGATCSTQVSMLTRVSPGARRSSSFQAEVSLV

[3] = DRUGMATRIX: Sodium/nucleoside co-transporter radioligand binding (ligand: nitrobenzylthioinosine); assay type: cell membranes, Cavia porcellus, Dunkin-Hartley, Cerebral cortex, Membrane; settings: Not Active = under 50% inhibition at 10 µM
[4] = DRUGMATRIX: Potassium Channel [KATP] radioligand binding (ligand: [3H] Glyburide); assay type: cell membranes, Membrane; settings: hit-t15, Not Active = under 50% inhibition at 10 µM

Tyrosine-protein kinase Fyn, sequence (P06241 whole entry): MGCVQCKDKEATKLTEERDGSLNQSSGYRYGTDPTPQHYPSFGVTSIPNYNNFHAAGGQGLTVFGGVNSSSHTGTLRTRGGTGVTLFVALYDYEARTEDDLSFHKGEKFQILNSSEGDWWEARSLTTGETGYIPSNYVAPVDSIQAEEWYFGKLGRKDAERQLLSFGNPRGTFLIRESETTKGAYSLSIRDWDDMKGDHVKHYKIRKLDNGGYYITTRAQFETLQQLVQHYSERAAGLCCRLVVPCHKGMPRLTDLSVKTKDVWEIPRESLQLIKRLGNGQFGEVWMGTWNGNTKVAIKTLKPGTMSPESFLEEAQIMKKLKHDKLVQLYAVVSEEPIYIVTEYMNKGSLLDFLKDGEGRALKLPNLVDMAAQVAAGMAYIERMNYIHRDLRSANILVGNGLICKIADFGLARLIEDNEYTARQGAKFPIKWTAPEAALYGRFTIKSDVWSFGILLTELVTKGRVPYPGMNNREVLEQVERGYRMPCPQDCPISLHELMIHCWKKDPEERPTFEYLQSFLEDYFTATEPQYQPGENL

COc1ccc(Cl)cc1C(=O)NCCc1ccc(S(=O)(=O)NC(=O)NC2CCCCC2)cc1 [GLYBURIDE]
0.0038 µM: IC50 ([4]; read-out: IC50)
Not Active: IC50 [1] | IC50 (Histamine H2 receptor; cho-k1) | IC50 (Cytochrome P450 1A2) | Ki (Cytochrome P450 1A2) | IC50 [2] | IC50 [3] | Ki [3]
0.000432 µM: Ki ([4]; read-out: Ki)

Cc1ccnc2c1NC(=O)c1cccnc1N2C1CC1 [NEVIRAPINE]
Not Active: IC50 [1] | IC50 (Histamine H2 receptor; cho-k1) | IC50 (Cytochrome P450 1A2) | Ki (Cytochrome P450 1A2) | IC50 [2] | IC50 [3] | Ki [3] | IC50 [4] | Ki [4]

CCN1CCN(c2cc3c(cc2F)c(=O)c(C(=O)O)cn3C2CC2)CC1 [ENROFLOXACIN]
Not Active: IC50 [1] | IC50 (Histamine H2 receptor; cho-k1) | IC50 (Cytochrome P450 1A2) | Ki (Cytochrome P450 1A2) | IC50 [2] | IC50 [3] | Ki [3] | IC50 [4] | Ki [4]

NC(=O)CN1CCCC1=O
Not Active: IC50 [1] | IC50 (Histamine H2 receptor; cho-k1) | IC50 (Cytochrome P450 1A2) | Ki (Cytochrome P450 1A2) | IC50 [2] | IC50 [3] | Ki [3] | IC50 [4] | Ki [4]

C[N+](C)(C)CCOC(N)=O.[Cl-] [CARBACHOL]
Not Active: IC50 [1] | IC50 (Histamine H2 receptor; cho-k1) | IC50 (Cytochrome P450 1A2) | Ki (Cytochrome P450 1A2) | IC50 [2] | IC50 [3] | Ki [3] | IC50 [4] | Ki [4]

NCC(CC(=O)O)c1ccc(Cl)cc1 (stereo unspecified) [BACLOFEN]
Not Active: IC50 [1] | IC50 (Histamine H2 receptor; cho-k1) | IC50 (Cytochrome P450 1A2) | Ki (Cytochrome P450 1A2) | IC50 [2] | IC50 [3] | Ki [3] | IC50 [4] | Ki [4]

CC(CN1c2ccccc2Sc2ccccc21)N(C)C (stereo unspecified) [PROMETHAZINE]
1.16 µM: IC50 (Histamine H2 receptor; read-out: IC50)
Not Active: IC50 [1] | IC50 (Cytochrome P450 1A2) | Ki (Cytochrome P450 1A2) | IC50 [2] | IC50 [3] | Ki [3] | IC50 [4] | Ki [4]
1.15 µM: Ki (Histamine H2 receptor; read-out: Ki)

CC(C)(c1ccc(O)cc1)c1ccc(O)cc1 [BISPHENOL A]
Not Active: IC50 [1] | IC50 (Histamine H2 receptor; cho-k1) | IC50 (Cytochrome P450 1A2) | Ki (Cytochrome P450 1A2) | IC50 [2] | IC50 [3] | Ki [3] | IC50 [4] | Ki [4]

Nc1ccc(Cc2ccc(N)cc2)cc1
Not Active: IC50 [1] | IC50 (Histamine H2 receptor; cho-k1) | IC50 (Cytochrome P450 1A2) | Ki (Cytochrome P450 1A2) | IC50 [2] | IC50 [3] | Ki [3] | IC50 [4] | Ki [4]

CC[C@H]1OC(=O)[C@H](C)[C@@H](O[C@H]2C[C@@](C)(OC)[C@@H](O)[C@H](C)O2)[C@H](C)[C@@H](O[C@@H]2O[C@H](C)C[C@H](N(C)C)[C@H]2O)[C@](C)(O)C[C@@H](C)C(=O)[C@H](C)[C@@H](O)[C@]1(C)O [ERYTHROMYCIN]
Not Active: IC50 [1] | IC50 (Histamine H2 receptor; cho-k1) | IC50 (Cytochrome P450 1A2) | Ki (Cytochrome P450 1A2) | IC50 [2] | IC50 [3] | Ki [3] | IC50 [4] | Ki [4]

OC[C@H]1O[C@@H]2O[C@H]3[C@H](O)[C@@H](O)[C@@H](O[C@H]4[C@H](O)[C@@H](O)[C@@H](O[C@H]5[C@H](O)[C@@H](O)[C@@H](O[C@H]6[C@H](O)[C@@H](O)[C@@H](O[C@H]7[C@H](O)[C@@H](O)[C@@H](O[C@H]8[C@H](O)[C@@H](O)[C@@H](O[C@H]1[C@H](O)[C@H]2O)O[C@@H]8CO)O[C@@H]7CO)O[C@@H]6CO)O[C@@H]5CO)O[C@@H]4CO)O[C@@H]3CO [BETADEX]
Not Active: IC50 [1] | IC50 (Histamine H2 receptor; cho-k1) | IC50 (Cytochrome P450 1A2) | Ki (Cytochrome P450 1A2) | IC50 [2] | IC50 [3] | Ki [3] | IC50 [4] | Ki [4]

C[C@H]1C[C@H]2[C@@H]3CCC4=CC(=O)C=C[C@]4(C)[C@@]3(F)[C@@H](O)C[C@]2(C)[C@@]1(O)C(=O)CO [BETAMETHASONE]
Not Active: IC50 [1] | IC50 (Histamine H2 receptor; cho-k1) | IC50 (Cytochrome P450 1A2) | Ki (Cytochrome P450 1A2) | IC50 [2] | IC50 [3] | Ki [3] | IC50 [4] | Ki [4]

Oc1ccccc1 [PHENOL]
Not Active: IC50 [1] | IC50 (Histamine H2 receptor; cho-k1) | IC50 (Cytochrome P450 1A2) | Ki (Cytochrome P450 1A2) | IC50 [2] | IC50 [3] | Ki [3] | IC50 [4] | Ki [4]

C=CCO [ALLYL ALCOHOL]
Not Active: IC50 [1] | IC50 (Histamine H2 receptor; cho-k1) | IC50 (Cytochrome P450 1A2) | Ki (Cytochrome P450 1A2) | IC50 [2] | IC50 [3] | Ki [3] | IC50 [4] | Ki [4]

C[C@]12CC[C@@H](O)C[C@@H]1CC[C@@H]1[C@@H]2CC[C@]2(C)C(=O)CC[C@@H]12 [ANDROSTERONE]
Not Active: IC50 [1] | IC50 (Histamine H2 receptor; cho-k1) | IC50 (Cytochrome P450 1A2) | Ki (Cytochrome P450 1A2) | IC50 [2] | IC50 [3] | Ki [3] | IC50 [4] | Ki [4]

COC(=O)Nc1nc2ccc(Sc3ccccc3)cc2[nH]1 [FENBENDAZOLE]
Not Active: IC50 [1] | IC50 (Histamine H2 receptor; cho-k1) | IC50 (Cytochrome P450 1A2) | Ki (Cytochrome P450 1A2) | IC50 [2] | IC50 [3] | Ki [3] | IC50 [4] | Ki [4]

C#C[C@]1(O)CC[C@H]2[C@@H]3CCC4=CC(=O)CC[C@@H]4[C@H]3CC[C@@]21C [NORETHINDRONE]
Not Active: IC50 [1] | IC50 (Histamine H2 receptor; cho-k1) | IC50 (Cytochrome P450 1A2) | Ki (Cytochrome P450 1A2) | IC50 [2] | IC50 [3] | Ki [3] | IC50 [4] | Ki [4]

CCN(CCO)CCCC(C)Nc1ccnc2cc(Cl)ccc12 (stereo unspecified) [HYDROXYCHLOROQUINE]
Not Active: IC50 [1] | IC50 (Histamine H2 receptor; cho-k1) | IC50 [2] | IC50 [3] | Ki [3] | IC50 [4] | Ki [4]

COc1cc([C@@H]2c3cc4c(cc3[C@H](O)[C@H]3COC(=O)[C@H]23)OCO4)cc(OC)c1OC [PODOFILOX]
Not Active: IC50 [1] | IC50 (Histamine H2 receptor; cho-k1) | IC50 (Cytochrome P450 1A2) | Ki (Cytochrome P450 1A2) | IC50 [2] | IC50 [3] | Ki [3] | IC50 [4] | Ki [4]

CCCCCCNC(=O)n1cc(F)c(=O)[nH]c1=O [CARMOFUR]
Not Active: IC50 [1] | IC50 (Histamine H2 receptor; cho-k1) | IC50 (Cytochrome P450 1A2) | Ki (Cytochrome P450 1A2) | IC50 [2] | IC50 [3] | Ki [3] | IC50 [4] | Ki [4]

CC(C)(C#N)c1cc(Cn2cncn2)cc(C(C)(C)C#N)c1 [ANASTROZOLE]
Not Active: IC50 [1] | IC50 (Histamine H2 receptor; cho-k1) | IC50 (Cytochrome P450 1A2) | Ki (Cytochrome P450 1A2) | IC50 [2] | IC50 [3] | Ki [3] | IC50 [4] | Ki [4]

O=C(NCCN1CCOCC1)c1ccc(Cl)cc1 [MOCLOBEMIDE]
Not Active: IC50 [1] | IC50 (Histamine H2 receptor; cho-k1) | IC50 (Cytochrome P450 1A2) | Ki (Cytochrome P450 1A2) | IC50 [2] | IC50 [3] | Ki [3] | IC50 [4] | Ki [4]

Nc1ccc(C(=O)O)c(O)c1 [AMINOSALICYLIC ACID]
Not Active: IC50 [1] | IC50 (Histamine H2 receptor; cho-k1) | IC50 (Cytochrome P450 1A2) | Ki (Cytochrome P450 1A2) | IC50 [2] | IC50 [3] | Ki [3] | IC50 [4] | Ki [4]
